“Also recorded” adds a separate entry of the source.
Assays:
[1] = system: isolated rat aorta; experiment: In vitro vasorelaxation, cumulative concentration-response curves on rat aortic rings contracted with epinephrine; type: cell-based; conditions: isolated rat aorta pre-treated with 1 μM epinephrine
From the text: Male Sprague Dawley rats were anaesthetized using intraperitoneal injection of ketamine and xylazine (50 and 10 milligram per kilogram, respectively) and the thoracic aorta, the large upper portion of the descending aorta, starting at the caudal border of the chest bone, was removed thereafter, while carefully removing the paraadventetial tissue surrounding the vessel. Aortae were cut into rings of 4-5 millimeters and mounted onto the tissue path. The path buffer (Krebs-bicrbonate) was constantly gassed with carbogen and maintained at 37° C. The rings were preloaded under 2 g tension and equilibrated for 90 minutes, while refreshing the buffer every 15 minutes. After stabilization, the rings were contracted with epinephrine (1 μM). Cumulative Concentration-Response Curves (CCRC) were measured for the vasorelaxing effect induced by adding various concentrations, ranging from 10^−10 M to 10^−5 M of Pet-2, Pet-3, Pet-7, Pet-8, Pet-12, Pet-24, Pet-43, Pet-59, Pet-147, Pet-152 and Pet-154, and glyceryltrinitrate (GTN), according to the procedure described in Feelich et al., Molecular Pharmacology, 56:243-253 (1999). The vehicle, which was used for this experiment was water:ethanol:propyleneglycol at proportional ratio of 1:1:1.
The vasorelaxing effect of the thiazole-derived NO-donors according to the present invention was measured on slices of thoracic aorta of rats contracted with epinephrine, as described hereinabove.
The obtained results for Pet-2, Pet-3, Pet-7, Pet-8, Pet-12, Pet-24, Pet-43, Pet-59, Pet-147, Pet-152 and Pet-154 are presented in FIGS. 2-14, and are summarized in Table 3 below.

[2] = system: c-GMP in slices of thoracic aorta of rats; experiment: Cyclic-GMP measurement in aortic rat tissue (radioimmunoassay); type: cell-based; conditions: for levels of cGMP as compared with GTN: isolated rat aorta, FIGS. 25, 27, 33; for cGMP Post-infusion: rat aorta, post-infusion (repeated treatment)
Experimental: GTN (10^−6 M) was added to the chamber and, 1 minute after exposure to the drug, rings (usually 3-5) were taken, wrapped with aluminum foil and immediately frozen in liquid nitrogen for storage. Control sample group was treated with the vehicle solution only. At the time of analysis, rings were thawed, blotted over a dry gauzed and weighted. A known weight of tissue was homogenized in 2 ml ice-cold modified Hank's balanced salt solution containing (in gram/liter) NaCl 8; KCl 0.4; glucose 1; KH2PO4 0.06; Na2HPO4 0.047; Phenol red 0.017 and further containing 25 mM EDTA (disodium salt). The homogenate was centrifuged at 4000 g (force units) for 10 minutes at 2-4° C. and the supernatant was thereafter transferred into fresh pre-cooled test tube containing 1 ml of acetonitrile. The tubes were vortex mixed for a few seconds and subsequently centrifuged at 4000 g for 5 minutes at 2-4° C., to remove the precipitated protein. Each supernatant was transferred into a clean test tube and evaporated to dryness under a stream of nitrogen at 55° C. The dry residue was reconstituted with 10 volumes of Tris-EDTA buffer pH 7.5 (0.05 M Tris containing 4 mM EDTA). Aliquots of 100 μl of the reconstituted solution in duplicate were used for c-GMP measurements using Amersham RIA kit, as is described in Haj-Yehia & Benet [Pharmacology, 1995, 273, 1, pp. 94-100]. Standard curves were plotted with six concentrations (0, 0.5, 1, 2, 4 and 8 pmoles of c-GMP per tube).
The NO-tolerance effect of GTN and NO-donor compounds according to the present invention was measured by following the production of c-GMP in slices of thoracic aorta of rats. Thus, the production of c-GMP was measured as described in the methods section above for the reference NO-donor compound GTN, and for the NO-donors of the present invention Pet-2, Pet-3, Pet-7, Pet-8, Pet-10, Pet-12, Pet-24, Pet-59, Pet-147, Pet-149, Pet-152, Pet-154 and Pet-155.

[3] = system: cGMP in thoracic aorta of rats treated in vivo; experiment: Induction of in vivo nitrate tolerance (16 hour infusion, then cGMP in isolated aorta); design: species or system rat; conditions: rats infused in vivo 16 hours, aorta re-exposed to the compound
Experimental: Male Sprague Dawley rats (220 to 250 grams) were housed under constant temperature and humidity conditions. Light was maintained at a 12/12 light dark cycle. Except for 12 hours before the experiment, when food fasting was initiated, all rats had free access to standard rat pellet diet and tap water. The animals were anesthetized by intraperitoneal injection of ketamine and xylazine combination (50 and 10 milligram per kilogram, respectively). […] The catheters were filled with normal saline solution containing 1000 IU/ml of heparin and plugged with a metal pin. Catheters were externalized to the back of the neck region and secured by a polyester felt disk.
After implantation, the rats were individually housed until they regained their preoperative weight and appeared healthy (3 to 4 days post-operation). At this time point (day 0), an osmotic mini-pump (Alza Corp., Palo Alto, Calif.) delivering constant volume (10 μl/hour) of vehicle or drug was connected to one of the intravenous catheters.
For inducing tolerance to the tested NO-donor according to the present invention, the animals received 200 μg/hour of the tested compound for 16 hours (short-term-induced tolerance). A similar number of animals were processed by the same surgical procedure and received the vehicle alone (10 μl/hour of a solution consisting of 30% ethanol and 30% propylene glycol in sterile distilled water for injection).
At the end of the infusion periods used for the development of tolerance (16 hour), the rats were anesthetized as described above, the two catheters were externalized and the delivering catheters were disconnected from the mini-pump. The abdomen was opened by midline incision and the thoracic aorta were isolated, washed and cleaned from the surrounding tissues. Strips of the treated aortas were pooled in chambers containing Krebs-Hanseliet buffer (10 ml), and exposed to 1 μM of the tested NO-donor (final concentration) for 120 seconds. The tissues were quickly collected and frozen in liquid nitrogen for cGMP measurement, described hereinabove.

[4] = system: isolated rat aorta; experiment: In vitro induction of tolerance to NO releasing compounds (vasorelaxation of pre-exposed aortic rings, incl. cross-tolerance); type: cell-based; conditions: rat aorta pre-treated with epinephrine and then 0.44 mM of the compound
Experimental: Aortic rings were prepared as described hereinabove, and were exposed to 0.44 mM GTN (vehicle was water:ethanol:propyleneglycol at proportional ratio of 1:1:1) for 1 hour before CCRC construction, to thereby induce tolerance to nitroglycerine. At the end of the tolerance induction period, rings were thrice washed with the path buffer (Krebs-bicrbonate) every 15 minutes for the following hour and then CCRC for vasorelaxation on GTN-induced tolerance rings were constructed for GTN (pretreated versus untreated rings, FIG. 15), in order to verify the ability to induce and measure GTN tolerance induction in vitro
Attempted induction of tolerance to the NO-donating compounds of the present invention was performed under the same conditions as for GTN. Thus, in an exemplary experiment, rings were exposed to 0.44 mM solution of Pet-3 in the attempt to induce tolerance for Pet-3. CCRC were then measured for the vasorelaxing effect of Pet-3 on a group of rings which were pre-exposed to Pet-3 as to induce tolerance to Pet-3, and for an untreated control group. The above protocol was repeated with Pet-2, Pet-7, Pet-8, Pet-12, Pet-24, Pet-43, Pet-149 and Pet-152.
Cross-tolerance studies were conducted using the same technique described above for measuring vasorelaxation of aortic rings from rats. Two groups of aortic rings samples were pre-treated with GTN, then one group was measured for vasorelaxation by GTN and the second group for vasorelaxation by Pet-12, an exemplary NO-donor according to the present invention. For the opposite cross-tolerance studies, two groups of aortic rings samples were pre-treated with Pet-12, then one group was measured for vasorelaxation by GTN and the second group for vasorelaxation by Pet-12.

[5] = system: anesthetized hypertensive Sprague-Dawley male rats; experiment: Hypotensive effects: mean arterial pressure after iv bolus in phenylephrine-treated rats; type: in vivo, rat; conditions: rats pre-treated in vivo with phenylephrine; iv bolus 10-100 micrograms
From the text: These techniques were also used to detect tolerance induction by the NO-donors of the present invention and by GTN. For c-GMP levels and tolerance development, the rat's thoracic aorta was isolated after exposure to the tested compound in vivo, and measured as described above in the in vitro assays.
Mean arterial pressure (MAP) was monitored and determined during bolus infusion of Pet-2, Pet-3, Pet-7, Pet-8, Pet-12 and Pet-13. Briefly, polyethylene catheters (PE50) were inserted into the carotid artery and into the jugular vein of anesthetized hypertensive Sprague-Dawley male rats (200-300 grams). A blood pressure recorder was placed within the carotid artery. Phenylephrine (0.1 mg) was then injected and the mean arterial blood pressure (MABP) was monitored continuously until a stable baseline was reached. The hypotensive effects of intravenous (iv) bolus doses (0.1 mg of each tested compound) administered intravenously at the jugular vein in minimal volume of vehicle (0.2 ml per dose) were evaluated. Five minutes were allowed between each dose, during which the maximal decrease in MAP was recorded and a dose-response graph comparing the hypotensive effect of the compounds was constructed.

| Compound | vasorelaxation effect as compared with glyceryltrinitrate (words) [1] | levels of cGMP as compared with GTN [2] | tolerance in vivo: cGMP level in aorta following repeated treatment [3] | cGMP Post-infusion [2] | tolerance induction after pre-treatment with the same compound [4] | hypotensive / vasorelaxation effect on heightened mean arterial blood pressure [5] | vasorelaxation effect as compared with glyceryltrinitrate [1] |
| --- | --- | --- | --- | --- | --- | --- | --- |
| Cc1nc(NC(=O)[C@@H](C)c2ccc(CC(C)C)cc2)sc1CCO[N+](=O)[O-] (stereo in doubt) [Pet-152, 2-(4-Isobutyl-phenyl)-N-[4-methyl-5-(2-nitrooxy-ethyl)-thiazol-2-yl]-propionamide] | superior vasorelaxation effect | increased levels of cGMP | – | – | – | – | – |
| CCc1nc(C)c(CCO[N+](=O)[O-])s1 [Pet-2, 2-Ethyl-4-methyl-5-(2-nitrooxy-ethyl)-thiazole] | superior vasorelaxation effect | – | absence of tolerance induction; also recorded: absence of tolerance effect; also recorded: remained substantially unchanged | 140 ± 13 pmol/g tissue | – | – | – |
| Cc1nc(C)c(CCO[N+](=O)[O-])s1 [Pet-3, 2,4-Dimethyl-5-(2-nitrooxy-ethyl)-thiazole] | superior vasorelaxation effect | increased levels of cGMP | – | 118 ± 10 pmol/g tissue | absence of tolerance induction | – | – |
| Cc1nc(N(C)C)sc1CCO[N+](=O)[O-] [Pet-7, Dimethyl-[4-methyl-5-(2-nitrooxy-ethyl)-thiazol-2-yl]-amine] | superior | increased levels of cGMP | – | 123 ± 12 pmol/g tissue | absence of tolerance induction | vasorelaxation effect | 10 fold |
| Cc1nc(-c2ccccc2)sc1CCO[N+](=O)[O-] [Pet-8, 4-Methyl-5-(2-nitrooxy-ethyl)-2-phenyl-thiazole] | superior vasorelaxation effect | increased levels of cGMP | – | 136 ± 12 pmol/g tissue | – | – | – |
| Cc1nc(N)sc1CCO[N+](=O)[O-] [Pet-10, 4-methyl-5-(2-nitrooxy-ethyl)-thiazole-2-ylamine] | – | increased levels of cGMP | – | – | – | – | – |
| Cc1nc(CCCCc2nc(C)c(CCO[N+](=O)[O-])s2)sc1CCO[N+](=O)[O-] [Pet-13] | – | – | – | – | – | vasorelaxation effect | – |
| CNc1cncc(-c2nc(C)c(CCO[N+](=O)[O-])s2)n1 [Pet-24, Methyl-{6-[4-methyl-5-(2-nitrooxy-ethyl)-thiazol-2-yl]-pyrazin-2-yl}-amine] | – | increased levels of cGMP | – | 112 ± 10 pmol/g tissue | absence of tolerance induction | – | – |
| Cc1nc(Nc2nc(C)c(CCO[N+](=O)[O-])s2)sc1CCO[N+](=O)[O-] [Pet-43, Bis-[4-methyl-5-(2-nitrooxy-ethyl)-thiazol-2-yl]-amine] | superior vasorelaxation effect | – | – | – | absence of tolerance induction | – | – |
| Cc1nc(-c2ccc(C(F)(F)F)cc2)sc1CCO[N+](=O)[O-] [Pet-59, 4-Methyl-5-(2-nitrooxy-ethyl)-2-(4-trifluoromethyl-phenyl)-thiazole] | superior vasorelaxation effect | increased levels of cGMP | – | – | – | – | – |
| CCNc1nc(C)c(CCO[N+](=O)[O-])s1 [Pet-147, Ethyl-[4-methyl-5-(2-nitrooxy-ethyl)-thiazol-2-yl]-amine] | – | increased levels of cGMP | – | – | – | – | – |
| Cc1nc(Nc2cccc3ccccc23)sc1CCO[N+](=O)[O-] [Pet-149, [4-Methyl-5-(2-nitrooxy-ethyl)-thiazol-2-yl]-naphthalen-1-yl-amine] | superior vasorelaxation effect | increased levels of cGMP | – | 115 ± 14 pmol/g tissue | absence of tolerance induction | – | – |
| Cc1nc(NC(=O)c2cccnc2)sc1CCO[N+](=O)[O-] [Pet-154, N-[4-methyl-5-(2-nitrooxy-ethyl)-thiazol-2-yl]-nicotinamide] | – | increased levels of cGMP | – | – | – | – | – |
| C=CCNc1nc(C)c(CCO[N+](=O)[O-])s1 [Pet-155, allyl-[4-methyl-5-(2-nitrooxy-ethyl)-thiazol-2-yl]-amine] | superior vasorelaxation effect | increased levels of cGMP | – | – | – | – | – |

Source: patent publication US7332513B2, “Thiazole-based nitric oxide donors having acyl substituent(s) and uses thereof” (priority 2004, dated 2008)
